In publication PMC11475408, “All‐Inorganic Polyoxometalates Act as Superchaotropic Membrane Carriers” (Advanced Materials (Deerfield Beach, Fla.), 2023):
Like-named read-outs stand apart in the source and are kept apart here.

Assays:
[1] = CF transport assay in EYPC⊃CF vesicles (carrier activity); format: biochemical; design: key to Carrier activity: ‐ – ‐: No detectable activity at pH 5.5 and 7.4; conditions: for Carrier activity: EYPC vesicles, pH 5.5 and 7.4, cargos heptaArg, protamine, polyArg ([AlMo6]: heptaArg and protamine only); for Transport activity (in words): EYPC⊃CF vesicles, neutral pH, carrier then cargo; for EC50: 5% error (SD)
Text: The capability of POMs to act as membrane carriers was explored first in large unilamellar vesicles (LUVs) loaded with carboxyfluorescein (CF).^[ [54], [55] ^] We selected […] representative cationic peptides, heptaarginine (heptaArg), heptalysine (heptaLys), protamine, and polyarginine (polyArg), as test cargos. Inside the LUVs, the CF dye was encapsulated at self‐quenching concentrations. With a suitable carrier, heptaArg can be taken up into the vesicles, bind with entrapped CF, and shuttle back to the exterior, diluting the previously quenched CF, and thereby restoring its fluorescence (Figure 1c). In the time‐resolved fluorescence experiments (Figure 2a), to test whether a particular POM acts as molecular carrier, the CF emission was continuously monitored during the addition of the inorganic carrier (t = 60 s) and after injection of the impermeable selected cargo (t = 120 s). Toward the end of the experiment (t = 600 s), the surfactant Triton X‐100 was added to release all the entrapped CF and allow normalization of the intensity data.
A thin lipid film was prepared by evaporating a lipid solution of EYPC (egg yolk phosphatidylcholine, 25 mg) in CHCl3 (1 mL) with a stream of nitrogen and then dried in vacuo overnight. The dry film was rehydrated with 1 mL buffer (50 mM CF, 10 mM Hepes, pH 7.4 or 50 mM CF, 10 mM Tris, pH 7.4) for 30 min at room temperature, subjected to freeze–thaw cycles (7 times) and extrusions (15 times) through a polycarbonate membrane (pore size 100 nm). Extravesicular components were removed by size exclusion chromatography (NAP‐25 column Sephadex G‐25 DNA grade) with 10 mM Hepes, 107 mM NaCl, pH 7.4, or 10 mM Hepes, 107 mM NaCl, pH 7.4. Phospholipid concentration was calculated by the Stewart assay.^[ [81] ^]
Acidic vesicles were prepared analogously but the rehydration and elution buffer were 50 mM CF, 10 mM Mes, pH 5.5 and 10 mM Mes, 107 mM NaCl, pH 5.5. respectively.
Vesicles stock solutions (5–10 µL) were diluted with the corresponding buffer in a disposable plastic cuvette and gently stirred (total volume 2000 µL, final lipid concentration 13 µM). Carboxyfluorescein fluorescence was monitored at λ em = 517 nm (λ ex = 492 nm) as a function of time after addition of POMs at 60 s, analyte at 120 s and Triton X‐100 (24 µL 1.2% wt/vol) at 600 s to lyse the vesicles, for calibration. Fluorescence intensities were normalized to fractional emission as (1) It=It−I0/I∞−I0 where I 0 = I t before POM addition and […] after lysis. For Hill analysis, I t before lysis was defined as transport activity, Y, and plotted against POM concentration, c, and fitted to the Hill Equation (2), to afford the activity in absence of POM, Y 0, the maximal activity, Y max, the concentration needed to achieve 50% of maximal activity, EC 50, and the Hill coefficient, n (2) Y=Y0+Ymax−Y0/1+EC50/c^n
In the transport measurements, where different carriers (POMs) are tested with the same cargo, the activator efficiency (E) is determined by their capacity to transport the impermeable cargo to the intravesicular region and is characterized by Y max, its maximal activity, and EC 50, the effective activator concentration. An ideal carrier reaches high Y max at low EC 50. To count both factors, the activator efficiency is defined as (3) E=YmaxpEC50/f were pEC 50 is the negative logarithm of the EC 50, and f a scaling factor, which was set to 20.6 to calibrate the highest (previously known) activation efficiency, E, as 10.^[ [55] ^]

[2] = Hydrolysis/stability of POMs in buffer by NMR; conditions: for Hydrolysis/stability pH 7.5: 10 mM Hepes or Tris, pH 7.4; for Hydrolysis/stability pH 7.5 / Hydrolysis/stability pH 5.5: 107 mM NaCl, NMR, long-term (24 h and longer); for Stability at pH 7.5 by NMR (in words): Hepes or Tris-HCl pH 7.5, 27Al, 31P or 183W NMR, fresh and aged 1-3 days; for Hydrolysis/stability pH 5.5: 10 mM Mes
Method: First, their long‐term (24 h and longer) fate in aqueous solution (slightly acidic and neutral) was investigated by applying the active NMR nuclei in their composition (Table S9 and Figures S24–S37, see the Supporting Information for details).
NMR-spectroscopic characterization of identity and stability
NMR spectroscopy for all POMs tested was performed under experimental conditions.

[3] = system: CHO‐K1 cells; assay: FITC-Arg8 uptake in live cells, confocal imaging; format: cell-based, Chinese hamster; conditions: 30 min, 37 °C; for FITC-Arg8 uptake promoted by carrier: carrier 5 µM, 5 min, then FITC-Arg8 5 µM, four biological replicates
Method: CHO‐K1 cells were plated into µ‐Slide 8‐well plates (ibidi) at a density of ≈1 × 10^5 cells per well (per 1 mL) and incubated for 24 h in Ham's F‐12 medium containing 10% v/v fetal bovine serum and 1.0% penicillin streptomycin at 37 °C in a 5% CO2 atmosphere. The cells were washed twice with Hank's buffer, incubated for 5 min at 37 °C in Ham's F‐12 medium without phenol red with carrier (5 µM), and subsequently in Ham's F‐12 medium without phenol red with 5 µM FITC‐Arg8 for 30 min at 37 °C. Cells in the absence of carrier were used as control. The cells were washed twice with Hank's buffer containing 100 µg mL^−1 heparin and then washed twice with Ham's F‐12 medium without phenol red. The nuclear staining was performed by incubating the cells with 10 µg mL^−1 Hoechst 33 342 (bis‐benzimide H33342 trihydrochloride) for 10 min at 37 °C. Cells were directly imaged as stated above.

[4] = Membrane disruption of liposomes by POM alone (CF fluorescence, DLS); format: biochemical; conditions: higher than 100 µM POM, 10 mM Tris, 107 mM NaCl, pH 7.4
Method: It should be noted that the addition of POMs alone (without cargo) retained the stability of the liposomes in the studied concentration range (up to 100 µM), that is, neither an increase in CF fluorescence nor changes in size distribution as obtained by dynamic light scattering experiments (DLS, see Figure S4, Supporting Information) were observed, which would have signaled membrane rupture. These negative controls allowed us to proceed to the carrier experiments, with added cargo.
DLS experiments of the vesicles were carried out on a Malvern Instruments DTS Nano 2000 Zeta‐Sizer. A POM concentration of 100 µM was chosen as default, since this is the highest concentration at which membrane transport was evaluated. The cargo concentration was set to be same as in the transport experiments, namely 10 µM for heptaarginine, 1 µM for protamine, and 0.1 µM for polyarginine. Note that the POMs themselves, with a size of ≈1 nm, fall below the detection limit (>10 nm) of the DLS instrument.
Figure S3. Transport activity, Y, for polyarginine (0.1 µM) in EYPC[…]CF liposomes as a function of the concentration of the different evaluated POMs. Solid lines correspond to the resulting fit with the Hill equation. Blue squares are data obtained at neutral pH, and red stars data obtained at acidic pH.
Table S4. Membrane transport parametersa) of active POMs at neutralb) and acidicc) pH.
HeptaArgd) Protaminee) PolyArgf) carrier pH Hydrolysis/Stability
Ymax [%]g) EC50h) [µM] E i) Ymax [%] EC50 [µM] E Ymax [%] EC50 [µM] E […]
Figure S5. Transport kinetics (left pannels), dose response curves (middle pannels) for cargo transport, and size distribution (by DLS, right pannels) for [PW12]3‒ (top) and [SiW12]4‒ (bottom), measured with EYPC[…]CF liposomes at pH 7.4, but preserving the POM solution at pH 1.2 before addition. As shown in panel a, the addition of [PW12]3‒ alone gave a fluorescence increase, pointing to membrane disruption, which was confirmed by DLS (panel c). […]

[5] = system: methicillin-resistant Staphylococcus aureus (SR3605, ATCC43300); conditions: in combination with β-Lactamase, Mueller-Hinton broth, pH 7.4, 34 °C, cited from earlier work
Text: page 4: 2. Literature survey Table S1. Survey of experimentally proven membrane penetration of POMs according to a search in Scopus (“polyoxometalate” and “membrane penetration”) up to the submission date of the manuscript.

[6] = CF assay, EYPC LUVs, 0.1 µM polyArg, pH 7.4, read-out: PolyArg EC 50
[7] = CF assay, EYPC LUVs, 0.1 µM polyArg, pH 7.4, ±2% error (SD)
[8] = EYPC LUVs, 0.1 µM polyArg, pH 7.4, f = 20.6, 10% error

Question: For “(C4H12N)4[α‐HAl^IIIGe^IVW^VI 11O39(H2O)]·11H2O [[AlGeW11]^5‒]”, which “Carrier activity” value [1] is on record?
Answer: ‐ – ‐ ^k)

Question: And the “Hydrolysis/stability pH 7.5” value [2]?
Answer: Stable

Question: And the “Stability at pH 7.5 by NMR (in words)” value [2]?
Answer: integrity at pH 7.5

Question: Which results are given for B12Br12 ^2‒ [reference compound]?
Answer: FITC-Arg8 uptake promoted by carrier [3]: did not achieve efficient uptake; Hydrolysis/stability pH 7.5 [2]: Stable; Hydrolysis/stability pH 5.5 [2]: Stable

Question: Which results are given for “K4[α‐Si^IVW^VI 12O40]·14H2O [[SiW12]^4‒]”?
Answer: Vesicle lysis at higher concentrations [4]: led to vesicle lysis; Carrier activity [1]: ‐ – ‐ ^k) , ^m); Cargo transport with POM solution kept at pH 1.2 ([1]; EYPC⊃CF liposomes at pH 7.4, POM solution preserved at pH 1.2 before addition): showed the desired cargo transport at acidic pH, without membrane disruption; Transport activity (in words) [1]: neither an interaction with the membrane nor cargo transport; Stability at pH 7.5 by NMR (in words) [2]: [SiIVWVI11O39]8‒ is predominant

Question: What does the source list for `Cc1onc(-c2ccccc2)c1C(=O)N[C@@H]1C(=O)N2[C@@H]1SC(C)(C)[C@@H]2C(=O)O` [oxacillin]?
Answer: MIC ([5]; ref [8]): 256 µg/mL; MIC ([5]; ref [9]): 256 µg/mL

Question: Which “HeptaArg Y max” value ([1]; CF assay, EYPC LUVs, 13 µM lipid, 10 µM heptaArg, 10 mM Hepes or Tris, 107 mM NaCl, pH 7.4, 10 min, Hill fit, triplicates, ±2% error (SD)) does the source give for `O=C(O)CCCc1ccc2ccc3cccc4ccc1c2c34` [PyBu^‒, pyrenebutyrate, reference compound] here?
Answer: 100%

Question: What about the EC50 [1, 6] of the same compound?
Answer: 12 µM

Question: And the “PolyArg Y max” value [1, 7]?
Answer: 91%

Question: And the EC50 ([1]; CF assay, EYPC LUVs, 1 µM protamine, pH 7.4, read-out: Protamine EC 50)?
Answer: 39 µM

Question: What about the “Protamine Y max” value ([1]; CF assay, EYPC LUVs, 1 µM protamine, pH 7.4, ±2% error (SD)) of the same compound?
Answer: 77%

Question: What about the EC50 ([1]; CF assay, EYPC LUVs, 10 µM heptaArg, pH 7.4, carrier concentration for 50% of Ymax, read-out: HeptaArg EC 50) of the same compound?
Answer: 100 µM

Question: What about the “PolyArg E (activation efficiency)” value [1, 8] of the same compound?
Answer: 8.5

Question: And the “Protamine E (activation efficiency)” value ([1]; EYPC LUVs, 1 µM protamine, pH 7.4, f = 20.6, 10% error)?
Answer: 5.3

Question: And the “HeptaArg E (activation efficiency)” value ([1]; EYPC LUVs, 10 µM heptaArg, pH 7.4, E = Ymax(pEC50/f), f = 20.6, 10% error)?
Answer: 4.8

Question: And the “Efficacy when the sequence of addition was inverted” value ([1]; heptaarginine 10 µM, cargo before carrier (Figure S6))?
Answer: significantly reduces its activity

Question: And the “FITC-Arg8 uptake promoted by carrier” value [3]?
Answer: did not achieve efficient uptake

Question: And the “Hydrolysis/stability pH 7.5” value [2]?
Answer: Stable

Question: What about the “Hydrolysis/stability pH 5.5” value [2] of the same compound?
Answer: Stable

Question: With “Na5[α‐Al^IIIW^VI 12O40]·12H2O [[AlW12]^5‒]” as the compound, how does the “Carrier activity” value [1] read?
Answer: ‐ – ‐ ^k)

Question: What about the “Hydrolysis/stability pH 7.5” value [2] of the same compound?
Answer: Stable

Question: And the “Stability at pH 7.5 by NMR (in words)” value [2]?
Answer: stable at pH 7.5

Question: With “Na3[Al^III(OH)6Mo^VI 6O18]·2H2O [[AlMo6]^3‒]” as the compound, how does the EC50 [1, 6] read?
Answer: 11 µM

Question: What about the “PolyArg Y max” value [1, 7] of the same compound?
Answer: 33%

Question: And the “PolyArg E (activation efficiency)” value [1, 8]?
Answer: 3.1

Question: And the “Carrier activity” value [1]?
Answer: ‐ – ‐ ^k)

Question: And the “Transport activity (in words)” value [1]?
Answer: incipient transport activity, but only for polyarginine as cargo

Question: And the “Hydrolysis/stability pH 7.5” value [2]?
Answer: Stable

Question: With “5(6)‐fluorescein isothiocyanate‐labelled octaarginine [FITC‐Arg8]” as the compound, how does the “Uptake of FITC-Arg8 without carrier” value ([3]; FITC-Arg8 5 µM) read?
Answer: minor punctate fluorescence
